Laboratory results: PubChem BioAssay (NCI)
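How tested: cells in 96-well plates exposed to compound for 48 hours at five concentrations. GI50 = concentration required for 50% inhibition of growth. TGI: total growth inhibition.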

Assays:
Assay in all cases: DTP human tumour cell line panel, 48 h
A498 renal = system: A498 renal
HCT-15 colon = system: HCT-15 colon
RXF 393 renal = system: RXF 393 renal
HOP-62 NSCLC = system: HOP-62 NSCLC
UO-31 renal = system: UO-31 renal
SF-539 CNS = system: SF-539 CNS
SK-OV-3 ovarian = system: SK-OV-3 ovarian
CCRF-CEM leukemia = system: CCRF-CEM leukemia
HCC-2998 colon = system: HCC-2998 colon
TK-10 renal = system: TK-10 renal

| SMILES | TGI (A498 renal) | TGI (HCT-15 colon) | TGI (RXF 393 renal) | TGI (HOP-62 NSCLC) | TGI (UO-31 renal) | TGI (SF-539 CNS) | TGI (SK-OV-3 ovarian) | TGI (CCRF-CEM leukemia) | TGI (HCC-2998 colon) | TGI (TK-10 renal) | GI50 (A498 renal) | GI50 (HCT-15 colon) | GI50 (RXF 393 renal) | GI50 (HOP-62 NSCLC) | GI50 (UO-31 renal) | GI50 (SF-539 CNS) | GI50 (SK-OV-3 ovarian) | GI50 (CCRF-CEM leukemia) | GI50 (HCC-2998 colon) | GI50 (TK-10 renal) |
| --- | --- | --- | --- | --- | --- | --- | --- | --- | --- | --- | --- | --- | --- | --- | --- | --- | --- | --- | --- | --- |
| Cc1c(C(=O)CC(=O)C(=O)Nc2ccc(Cl)c(Cl)c2)[n+](=O)c2ccccc2n1[O-] | > 100 µM | 48.2 µM | 92.2 µM | > 100 µM | > 100 µM | 57.5 µM | > 100 µM | 43 µM | 67.3 µM | > 100 µM |  |  |  |  |  |  |  |  |  |  |
| Cn1cccc1-c1cc(-c2cccs2)[nH]c(=O)c1C#N | > 100 µM | > 100 µM | > 100 µM | > 100 µM | 27.5 µM | > 100 µM | > 100 µM | > 100 µM | > 100 µM | > 100 µM | 17.9 µM | > 100 µM | > 100 µM | 83.9 µM | 13.8 µM | > 100 µM | > 100 µM | > 100 µM | > 100 µM | > 100 µM |
| COC(=O)N/N=C(/CCN1CCCC1)CC(c1ccccc1)c1c(O)c2ccccc2oc1=O (stereo not given) | > 100 µM | > 100 µM | > 100 µM | > 100 µM | > 100 µM | > 100 µM | > 100 µM | > 100 µM | > 100 µM | > 100 µM |  |  |  |  |  |  |  |  |  |  |
| O=C1C(=O)c2ccccc2-c2ccccc21 | 3.32 µM | 2.92 µM | 3.12 µM | 5.24 µM | 2.82 µM | 2.99 µM | 3.25 µM | 4.85 µM | 3.52 µM | 3.3 µM | 1.8 µM | 1.05 µM | 1.72 µM | 1.72 µM | 1.44 µM | 1.6 µM | 1.73 µM | 1.5 µM | 1.99 µM | 1.82 µM |
| N/C(=N\N=C\c1cccs1)NO | > 100 µM | > 100 µM | > 100 µM | > 100 µM | > 100 µM | > 100 µM | > 100 µM | > 100 µM | > 100 µM | > 100 µM |  |  |  |  |  |  |  |  |  |  |
| O=[N+]([O-])c1cc(CCl)ccc1CCl | 16.1 µM | 3.64 µM | 1.65 µM | 2.93 µM | 3.18 µM | 7.14 µM | 26 µM | 3.14 µM | 4.01 µM | 8.23 µM |  |  |  |  |  |  |  |  |  |  |
| COc1cc(-c2cc(=O)c3ccccc3o2)ccc1N | > 100 µM | > 100 µM | > 100 µM | > 100 µM | > 100 µM | > 100 µM | > 100 µM | > 100 µM | > 100 µM | > 100 µM |  |  |  |  |  |  |  |  |  |  |
| COc1ccc(-c2nn(-c3cccc(NC(=O)Nc4ccc(Cl)c(C(F)(F)F)c4)c3)cc2-c2ccncc2)cc1Cl | 8.01 µM | 19.2 µM | 4.83 µM | 17.3 µM | 13.3 µM | 5.11 µM | > 100 µM | 6.4 µM | 27 µM | 92.2 µM | 2.4 µM | 2.37 µM | 1.42 µM | 3.37 µM | 2.12 µM | 2.04 µM | 4.31 µM | 1.9 µM | 5.51 µM | 4.8 µM |
